This experiment concerns balloon-denuded rats (coronary restenosis model). The experiment in a line: Treatment of experimental rat model of coronary restenosis. Format: in vivo, Sprague-Dawley rats. The note with it: 0.3 mg kg^-1 docetaxel i.v. on day 0 and 5, arteries collected day 14, n=6. On the procedure: Sprague-Dawley rats following angioplasty-induced arterial denudation were injected intravenously with 1 mL of 5 mg mL^−1 docetaxel-loaded PNPs in 10% sucrose at a docetaxel dose of 0.3 mg kg^−1 on day 0 and day 5. As controls, animals receiving PBS, free docetaxel, and empty PNPs were prepared. On day 14, animals were euthanized with an overdose of ketamine-xylazine cocktail and perfused with PBS and 4% paraformaldehyde (PFA) at a pressure of 120-140 mm Hg. Segments of left and right carotid arteries were carefully dissected out, and the PFA-fixed carotid arteries were embedded with Tissue-Tek OCT compound (VWR International) in a tissue base mold and slowly submerged into pre-chilled 2-methyl butane until frozen completely. The frozen tissue block was then immediately stored at −80° C. until sectioning. Serial sectioning (15 μm per section) was performed with a Cyrotome cryostat machine (Leica), and the tissue sections were placed on polylysine-treated glass slides. Tissue sections on slides were dried at room temperature for 30 min before staining. For immunohistochemistry, frozen sections on slides were first washed with PBS to remove residual OCT medium and then subjected to standard hematoxylin and eosin (H&E) staining. Areas of intima and media were analyzed using Image J. Luminal obliteration is defined as the intima area/the area within the internal elastic lamina. […]

One compound from patent publication US11241394B2, “Treating vasculature related diseases or disorders using nanoparticles” (The Regents of the University of California, priority 2015, dated 2022) can be followed below.

Consider `CC(=O)O[C@@]12CO[C@@H]1C[C@H](O)[C@@]1(C)C(=O)[C@H](O)C3=C(C)[C@@H](OC(=O)[C@H](O)[C@@H](NC(=O)OC(C)(C)C)c4ccccc4)C[C@@](O)([C@@H](OC(=O)c4ccccc4)[C@H]21)C3(C)C` [free docetaxel, docetaxel], for which the “intima-to-media ratio (I/M)” value turned out to be 0.76±0.18 and the luminal obliteration was 33.6%.
